According to patent publication US20170151264A1, “COMBINATION” (Almirall, S.A., priority 2014, published 2017):
pIC50: −log10 of the molar value.

Columns and labels:
[1] = test system: autoantibody-mediated cutaneous lesions; assay: Immunization-induced mouse model of epidermolysis bullosa acquista (EBA); type: in vivo, B6.SJL-H2s mice; details: 6 week treatment; for body weight gain: LAS191954 3 mg/kg/day or methylprednisolone 20 mg/kg/day orally
Description: Induction of experimental EBA was performed as described in Iwata H, Bieber K, Tiburzy B et al., J Immunol. 2013; 191:2978-2988. Briefly, 6-10 week B6.SJL-H2s mice were immunized with an emulsion of a recombinant protein encompassing the vWFA2 binding domain of mouse type VII collagen (COL7) in adjuvant (Titermax). After immunization, mice were weekly evaluated for the presence and extend of clinical disease, measured as percentage of body surface affected by skin lesions (erythema, blisters, erosions and crusts).
Treatments were carried out over a 6-week period, and mice were evaluated for the extend of clinical disease (primary endpoint) weekly. Clinical manifestations were scored 0 to 5, corresponding to 0%, <1%, ≧1% to <5%, ≧5% to <10%, ≧10% to <20% of body surface area affected, respectively. Area under Curve (AUC) was calculated from the score at inclusion, 1, 2, 3, 4, 5 and 6 weeks after allocation to treatment. For better comparability between experiments, the affected body surface area at weeks 1-6 was related to that at inclusion (set at 1).
Body weight was monitored weekly during treatment.

[2] = test system: neutrophils, eosinophils and lymphocytes in bronchoalveolar fluid (BALF); assay: House dust mite induced asthma model; type: in vivo, Mouse
PI3Kβ = PI3Kβ (Homo sapiens, UniProt P42338); details: HUVEC, S1P stimulus, phosphorylated AKT
[3] = test system: 273 protein and lipid kinases; assay: General selectivity kinase panel (Millipore, Invitrogen and ProQinase); type: biochemical; details: 10 μM
PI3Kδ [4] = biological target: T1, PI3Kδ (Homo sapiens, UniProt O00329); assay: Immune complex-induced ROS release in human neutrophils; type: cell-based; details: immune complexes
Target sequence in this assay (O00329 whole entry): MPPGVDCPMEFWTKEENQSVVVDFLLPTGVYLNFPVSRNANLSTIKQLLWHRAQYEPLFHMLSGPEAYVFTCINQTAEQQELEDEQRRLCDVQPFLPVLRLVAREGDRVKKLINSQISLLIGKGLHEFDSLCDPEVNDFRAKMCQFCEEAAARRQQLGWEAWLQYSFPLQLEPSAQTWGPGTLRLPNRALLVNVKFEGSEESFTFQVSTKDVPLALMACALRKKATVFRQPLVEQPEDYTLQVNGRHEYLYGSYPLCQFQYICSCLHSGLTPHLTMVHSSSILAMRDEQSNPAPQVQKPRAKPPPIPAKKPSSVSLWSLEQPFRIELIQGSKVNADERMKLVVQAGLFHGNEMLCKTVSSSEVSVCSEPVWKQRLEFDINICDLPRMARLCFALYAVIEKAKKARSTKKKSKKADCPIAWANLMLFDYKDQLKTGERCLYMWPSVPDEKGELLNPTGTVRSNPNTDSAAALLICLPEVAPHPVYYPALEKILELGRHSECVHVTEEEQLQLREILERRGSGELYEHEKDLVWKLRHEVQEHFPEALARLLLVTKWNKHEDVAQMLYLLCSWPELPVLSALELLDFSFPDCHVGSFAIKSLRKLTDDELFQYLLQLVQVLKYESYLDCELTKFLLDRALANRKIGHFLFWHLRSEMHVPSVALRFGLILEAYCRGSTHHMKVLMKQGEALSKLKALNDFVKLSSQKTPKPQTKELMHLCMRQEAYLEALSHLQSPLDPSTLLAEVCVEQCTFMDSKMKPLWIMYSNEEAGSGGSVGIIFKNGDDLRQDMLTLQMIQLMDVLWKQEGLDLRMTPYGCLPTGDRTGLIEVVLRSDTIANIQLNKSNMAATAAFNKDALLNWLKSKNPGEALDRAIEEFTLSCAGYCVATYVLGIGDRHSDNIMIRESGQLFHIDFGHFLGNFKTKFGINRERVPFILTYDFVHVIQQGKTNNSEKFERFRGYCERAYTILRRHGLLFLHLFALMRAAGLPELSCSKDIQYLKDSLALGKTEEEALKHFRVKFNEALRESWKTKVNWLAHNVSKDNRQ
Target sequence in this assay (P27986 2-724 partner limits assumed): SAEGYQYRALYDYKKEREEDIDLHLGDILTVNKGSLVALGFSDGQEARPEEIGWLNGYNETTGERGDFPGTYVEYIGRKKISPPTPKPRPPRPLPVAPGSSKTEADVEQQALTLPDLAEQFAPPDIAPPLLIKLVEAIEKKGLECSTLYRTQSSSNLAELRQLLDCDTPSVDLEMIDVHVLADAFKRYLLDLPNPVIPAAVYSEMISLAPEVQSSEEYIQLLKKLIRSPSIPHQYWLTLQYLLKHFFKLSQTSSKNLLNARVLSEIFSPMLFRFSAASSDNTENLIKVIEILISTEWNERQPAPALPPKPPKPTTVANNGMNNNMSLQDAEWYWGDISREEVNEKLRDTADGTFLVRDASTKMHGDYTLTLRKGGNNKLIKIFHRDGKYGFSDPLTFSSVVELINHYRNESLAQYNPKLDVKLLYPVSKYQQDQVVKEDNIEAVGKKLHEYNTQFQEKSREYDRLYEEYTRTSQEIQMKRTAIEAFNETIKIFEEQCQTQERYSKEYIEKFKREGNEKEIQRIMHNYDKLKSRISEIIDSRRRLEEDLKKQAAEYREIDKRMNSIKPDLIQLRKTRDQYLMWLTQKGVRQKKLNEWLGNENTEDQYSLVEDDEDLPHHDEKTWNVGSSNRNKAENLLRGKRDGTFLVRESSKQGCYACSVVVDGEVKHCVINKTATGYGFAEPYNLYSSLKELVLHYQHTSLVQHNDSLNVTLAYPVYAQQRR

[5] = test system: Concanavalin A induced plasma interleukin-2 (IL-2) release; assay: Concanavalin A induced plasma IL-2 release in rats; type: in vivo, Wistar rats; details: for plasma levels alone versus in combination: LAS191954 0.1 mg/kg, dexamethasone 0.03 mg/kg, rat; for reduction in IL2 production versus vehicle-treated con A-induced rats: LAS191954 0.1 mg/kg and/or dexamethasone 0.03 mg/kg, 1 h before con A, IL2 at 90 min
PI3Kδ [6] = biological target: T1, PI3Kδ; assay: BCR crosslinking-induced B cell CD69 expression, human whole blood; type: cell-based; details: CD19+ cells (human whole blood), B cell CD69 surface expression
Target sequence in this assay (O00329 whole entry): as the sequence (O00329 whole entry) above
Target sequence in this assay (P27986 whole entry partner): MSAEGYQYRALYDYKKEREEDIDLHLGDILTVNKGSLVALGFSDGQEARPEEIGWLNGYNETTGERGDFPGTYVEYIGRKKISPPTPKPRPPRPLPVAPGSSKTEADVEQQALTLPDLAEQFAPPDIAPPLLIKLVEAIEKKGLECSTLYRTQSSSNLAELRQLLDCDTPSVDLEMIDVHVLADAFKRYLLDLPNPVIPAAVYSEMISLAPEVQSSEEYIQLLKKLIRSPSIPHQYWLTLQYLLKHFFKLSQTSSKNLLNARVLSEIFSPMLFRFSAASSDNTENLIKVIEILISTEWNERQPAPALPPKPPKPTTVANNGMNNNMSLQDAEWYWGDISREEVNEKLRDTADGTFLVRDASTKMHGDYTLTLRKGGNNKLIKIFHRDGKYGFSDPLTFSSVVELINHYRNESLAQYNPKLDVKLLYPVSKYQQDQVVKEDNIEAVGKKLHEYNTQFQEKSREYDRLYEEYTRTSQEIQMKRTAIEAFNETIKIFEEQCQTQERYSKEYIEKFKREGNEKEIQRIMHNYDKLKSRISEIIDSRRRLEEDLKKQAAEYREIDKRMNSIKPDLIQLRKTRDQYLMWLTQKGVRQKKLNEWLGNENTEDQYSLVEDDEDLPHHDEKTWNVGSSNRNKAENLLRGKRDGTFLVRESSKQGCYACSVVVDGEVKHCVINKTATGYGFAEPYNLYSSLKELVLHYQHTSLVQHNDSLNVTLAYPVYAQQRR

PI3K p110γ = PI3K p110γ (Homo sapiens, UniProt P48736); details: recombinant human isoform, pre-incubation 30 min
[7] = test system: primary antibody responses to KLH; assay: Primary T cell dependent antibody response (TDAR) to KLH in mice; type: in vivo
Description: This assay allows a global assessment of the effect of a drug candidate on antigen presentation, helper T lymphocyte function and B lymphocyte dependent antibody production.
In both cases, the administration of the test compound started on the day of sensitization (day +1, KLH 2 mg/mouse, intravenously). […] A possible reason for this discrepancy is that the lymphocyte count of the concurrent vehicle group of the latter study was abnormally lower than usual, which could mask a potential effect of the test compound on this parameter.

neutrophils in BALF = assay: Cigarette smoke model; type: in vivo, Mouse; details: LAS191954 1 mg/kg and/or dexamethasone 0.3 mg/kg
[8] = test system: 81 GPCR receptors, 8 ion channels and 5 transporters; assay: General selectivity panel (Cerep); type: binding; details: 10 μM
[9] = test system: secondary IgG antibody responses to KLH; assay: Secondary TDAR to KLH in mice; type: in vivo
Description: This assay included two immunizations with KLH separated 15 days apart (50 μg KLH/animal, intraperitoneally) and specific IgG anti-KLH levels were measured on day +11 after the second immunization. Administration of test compound (0.3 and 3 mg/kg) started on the day of second immunization (day +1) and then once daily for the next 9 days.

[10] = test system: Anti-Dsg3 and anti-dsDNA autoantibody production; assay: MRL/lpr spontaneous autoimmune disease model, autoantibody production; type: in vivo, MRL/Ipr mouse; details: for Inhibition (%) of Anti Dsg3 total IgG production (Normalized AUCw 12-19) versus Vehicle / Inhibition (%) of Anti dsDNA total IgG production (Normalized AUCw 12-19) versus Vehicle: LAS191954 3 mg/kg or prednisolone 10 mg/kg orally once a day for 6 weeks
Description: The primary endpoint of this study was assessment of autoantibody production, including pemphigus-specific anti-Dsg3 antibodies.
The prednisolone dose was selected based on previous reports and corresponds to a high CS dose in humans.
As autoantibodies develop progressively and may follow a different course in each animal, anti-dsDNA antibody levels were measured on week 12 and used to uniformly distribute animals to dosing groups. At week 13, daily treatments were initiated and continued for 6 weeks. Antibodies to dsDNA and Dsg3 were measured at weeks 12, 15, 17 and 19. Skin lesions were inspected visually throughout the study. Effects on other parameters such as proteinuria, as well as general hematological, serological, and histological signs were evaluated at study completion.

CHO cells = details: highest tested concentration of 100 μM, 24 h
PI3Kδ [11] = biological target: T1, PI3Kδ; assay: M-CSF-induced AKT phosphorylation in THP-1 cells; type: cell-based; details: THP-1, M-CSF stimulus, phosphorylated AKT
Target sequence in this assay (O00329 whole entry): as the sequence (O00329 whole entry) above
Target sequence in this assay (P27986 whole entry partner): as the sequence (P27986 whole entry partner) above

PI3Kδ [12] = biological target: T1, PI3Kδ; assay: BCR crosslinking-induced CD69 expression in CD19+ B cells, isolated PBMC; type: cell-based; details: Anti-IgD, CD69 surface expression
Target sequence in this assay (O00329 whole entry): as the sequence (O00329 whole entry) above
Target sequence in this assay (P27986 whole entry partner): as the sequence (P27986 whole entry partner) above

[13] = Week 12 (beginning of treatment)
[14] = dexamethasone 0.1-10 mg/kg and LAS191954 0.1-10 mg/kg ranges tested, dose of value not stated

Chain of PI3K p110γ (P48736 whole entry, canonical isoform): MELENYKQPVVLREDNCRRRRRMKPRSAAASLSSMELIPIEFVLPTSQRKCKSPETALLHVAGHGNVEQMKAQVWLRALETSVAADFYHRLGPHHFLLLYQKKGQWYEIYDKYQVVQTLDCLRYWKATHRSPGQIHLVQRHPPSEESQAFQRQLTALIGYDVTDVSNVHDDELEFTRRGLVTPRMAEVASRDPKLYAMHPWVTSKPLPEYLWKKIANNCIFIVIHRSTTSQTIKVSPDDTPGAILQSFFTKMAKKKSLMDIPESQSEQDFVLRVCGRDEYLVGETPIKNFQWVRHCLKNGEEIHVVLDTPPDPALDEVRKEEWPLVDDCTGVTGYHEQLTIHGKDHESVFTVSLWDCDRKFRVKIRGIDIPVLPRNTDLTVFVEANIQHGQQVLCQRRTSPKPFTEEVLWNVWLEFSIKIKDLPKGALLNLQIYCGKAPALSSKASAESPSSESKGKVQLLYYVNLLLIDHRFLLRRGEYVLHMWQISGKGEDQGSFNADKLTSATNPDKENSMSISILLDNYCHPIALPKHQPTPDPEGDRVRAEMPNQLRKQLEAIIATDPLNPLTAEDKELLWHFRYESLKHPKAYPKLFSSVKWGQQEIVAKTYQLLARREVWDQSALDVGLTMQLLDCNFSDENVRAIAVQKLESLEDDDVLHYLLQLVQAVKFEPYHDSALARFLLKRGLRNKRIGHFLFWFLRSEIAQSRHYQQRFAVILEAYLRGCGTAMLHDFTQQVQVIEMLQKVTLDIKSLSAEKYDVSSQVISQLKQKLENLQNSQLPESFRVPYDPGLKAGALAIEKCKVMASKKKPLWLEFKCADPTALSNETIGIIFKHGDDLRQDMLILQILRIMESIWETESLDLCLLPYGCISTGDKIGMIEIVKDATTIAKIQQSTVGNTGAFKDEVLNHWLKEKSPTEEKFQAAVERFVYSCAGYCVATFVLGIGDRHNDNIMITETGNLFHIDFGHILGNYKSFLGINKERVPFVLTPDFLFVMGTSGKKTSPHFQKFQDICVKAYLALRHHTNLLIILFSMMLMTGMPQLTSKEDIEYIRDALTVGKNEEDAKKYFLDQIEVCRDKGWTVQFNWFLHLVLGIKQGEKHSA
Chain of PI3Kβ (P42338 whole entry): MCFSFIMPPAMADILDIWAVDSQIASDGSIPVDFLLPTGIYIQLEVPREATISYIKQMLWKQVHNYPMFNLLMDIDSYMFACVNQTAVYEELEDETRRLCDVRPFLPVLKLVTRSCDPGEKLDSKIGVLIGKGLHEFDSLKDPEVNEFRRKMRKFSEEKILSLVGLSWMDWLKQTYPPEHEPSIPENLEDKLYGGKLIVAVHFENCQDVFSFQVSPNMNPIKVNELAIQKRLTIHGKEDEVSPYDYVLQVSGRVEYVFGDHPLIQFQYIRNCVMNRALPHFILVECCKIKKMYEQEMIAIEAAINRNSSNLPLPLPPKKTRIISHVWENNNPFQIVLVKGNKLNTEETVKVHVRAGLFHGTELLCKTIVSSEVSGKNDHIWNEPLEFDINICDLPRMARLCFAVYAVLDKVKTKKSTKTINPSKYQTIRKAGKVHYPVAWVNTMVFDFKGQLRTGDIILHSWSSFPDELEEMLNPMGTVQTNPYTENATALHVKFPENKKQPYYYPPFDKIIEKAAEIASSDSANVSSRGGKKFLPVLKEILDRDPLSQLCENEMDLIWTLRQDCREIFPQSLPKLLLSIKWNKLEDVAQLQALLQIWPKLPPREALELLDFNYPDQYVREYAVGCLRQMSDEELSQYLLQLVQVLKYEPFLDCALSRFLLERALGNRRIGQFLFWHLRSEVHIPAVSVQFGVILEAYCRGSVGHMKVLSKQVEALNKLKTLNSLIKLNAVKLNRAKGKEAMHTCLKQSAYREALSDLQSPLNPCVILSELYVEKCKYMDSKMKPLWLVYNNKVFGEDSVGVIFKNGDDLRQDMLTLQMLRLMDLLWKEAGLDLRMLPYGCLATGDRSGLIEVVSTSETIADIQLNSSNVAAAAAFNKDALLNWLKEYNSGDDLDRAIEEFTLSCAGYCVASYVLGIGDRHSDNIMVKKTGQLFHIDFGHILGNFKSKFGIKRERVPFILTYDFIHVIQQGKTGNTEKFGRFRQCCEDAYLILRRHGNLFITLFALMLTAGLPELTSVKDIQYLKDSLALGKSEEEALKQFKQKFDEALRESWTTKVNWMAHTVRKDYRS
Chain of PI3Kβ (P27986 whole entry partner): as the sequence (P27986 whole entry partner) above

For `C[C@H]1C[C@@H]2[C@H]([C@@H](O)C[C@@]3(C)[C@H]2CC[C@]3(O)C(=O)CO)[C@@]2(C)C=CC(=O)C=C12` [Methylprednisolone, reference compound], the body weight gain [1] was “diminished the body weight gain”.
With `C[C@H](Nc1ncnc(N)c1C#N)c1nn2ccc(C#N)c2c(=O)n1-c1ccccc1` [LAS191954, (S)-2-(1-(6-amino-5-cyanopyrimidin-4-ylamino)ethyl)-4-oxo-3-phenyl-3,4-dihydropyrrolo[1,2-f][1,2,4]triazine-5-carbonitrile] the “effect on eosinophils in BALF (in words)” value ([2]; LAS191954 only) was “only = Modest”, the “effect on lymphocytes in BALF (in words)” value ([2]; LAS191954 only) was “only = Modest” and the “effect on neutrophils in BALF (in words)” value ([2]; LAS191954 only) was “increase in”. For the same compound, the pIC50 (PI3Kβ) was 6.53, the “inhibition at single concentration” value [3] was “No inhibition” and the pIC50 (PI3Kδ [4]) was 7.96. For the same compound, the “plasma levels alone versus in combination” value [5] was “same levels”, the ID50 ([5]; single administration, rats) was 0.13 mg/kg and the pIC50 (PI3Kδ [6]; Anti-IgD) was 7.33. The pIC50 (PI3Kδ [6]; Anti-IgM) was 7.47, the pIC50 (PI3K p110γ) was 7.14 and the ID50 ([7]; primary IgG anti-KLH, day +15, 14-day dosing) was 0.17 mg/kg. For the same compound, the lymphocyte count ([7]; primary IgG study, 14-day dosing) was “no apparent effect”, the ID50 ([7]; primary IgM anti-KLH, day +5, repeated daily administration) was 0.12 mg/kg and the WBC counts ([7]; primary IgM study, 4 days daily treatment) was “lower WBC counts”. For the same compound, the “general health status of the animals” value ([7]; primary TDAR, 0.03-10 mg/kg daily) was “without apparent effects”, the “overall disease activity, AUC of accumulative clinical score versus vehicle” value ([1]; LAS191954 3 mg/kg/day orally) was “significant reduction” and the body weight gain [1] was “not altered”. For the same compound, the “reduction in neutrophils in BALF” value (neutrophils in BALF) was “only = 49%”, the “inhibition at single concentration” value [8] was “No inhibition” and the lymphocyte counts ([9]; 0.3 and 3 mg/kg once daily) was “reduced lymphocyte counts”. For the same compound, the ID50 ([9]; secondary IgG anti-KLH, day +11 after second immunization, repeated administration) was < 0.3 mg/kg, the ID50 ([10]; Anti-Dsg3 and anti-dsDNA autoantibody production, repeated administration) was <3 mg/kg and the “Absolute Anti-Dsg3 IgG levels (Mean ± SEM)” value [10, 13] was 687 ± 252 U/ml. The “Absolute Anti-dsDNA IgG levels (Mean ± SEM)” value [10, 13] was 370.152 ± 52.401 U/ml, the “Absolute Anti-Dsg3 IgG levels (Mean ± SEM)” value ([10]; Week 19 (end of treatment)) was 450 ± 201 U/ml and the “Absolute Anti-dsDNA IgG levels (Mean ± SEM)” value ([10]; Week 19 (end of treatment)) was 333.806 ± 106.959 U/ml. For the same compound, the “mean decrease in anti-Dsg3 antibody levels below those at the beginning of treatment” value ([10]; week 19 versus week 12, FIG. 3) was 40%, the “reduction of anti-dsDNA antibody titers at the end of treatment” value ([10]; week 19 versus week 12, FIG. 3) was 10% and the maximum cell death (CHO cells) was 27%. It also gave a pIC50 (PI3Kδ [11]) of 8.11 and a pIC50 (PI3Kδ [12]) of 8.34.
With `C[C@]12C=CC(=O)C=C1CC[C@@H]1[C@@H]2[C@@H](O)C[C@@]2(C)[C@H]1CC[C@]2(O)C(=O)CO` [Prednisolone, prednisolone] the “Inhibition (%) of Anti Dsg3 total IgG production (Normalized AUCw 12-19) versus Vehicle” value [10] was 49.5 ± 10%, the “Inhibition (%) of Anti dsDNA total IgG production (Normalized AUCw 12-19) versus Vehicle” value [10] was 46.9 ± 10.9% and the “Inhibition (%) of Anti Dsg3 total IgG production (Normalized AUCw 12-19) versus Vehicle” value ([10]; listed as prednisolone) was 49.5%. For the same compound, the “Inhibition (%) of Anti dsDNA total IgG production (Normalized AUCw 12-19) versus Vehicle” value ([10]; listed as prednisolone) was 47%, the “Absolute Anti-Dsg3 IgG levels (Mean ± SEM)” value [10, 13] was 501 ± 188 U/ml and the “Absolute Anti-dsDNA IgG levels (Mean ± SEM)” value [10, 13] was 372.796 ± 56.638 U/ml. For the same compound, the “Absolute Anti-Dsg3 IgG levels (Mean ± SEM)” value ([10]; Week 19 (end of treatment)) was 242 ± 101 U/ml, the “Absolute Anti-dsDNA IgG levels (Mean ± SEM)” value ([10]; Week 19 (end of treatment)) was 933.755 ± 343.424 U/ml and the “change of anti-dsDNA antibody levels at the end of treatment (in words)” value ([10]; week 19 versus week 12, FIG. 3) was “doubled”. For the same compound, the “mean decrease in anti-Dsg3 antibody levels below those at the beginning of treatment” value ([10]; week 19 versus week 12, FIG. 3) was 20%.
For `C[C@@H]1C[C@H]2[C@@H]3CCC4=CC(=O)C=C[C@]4(C)[C@@]3(F)[C@@H](O)C[C@]2(C)[C@@]1(O)C(=O)CO` [Dexamethasone, dexamethasone, reference compound], the “reduction in eosinophils in BALF” value [2, 14] was 58%, the “reduction in lymphocytes in BALF” value [2, 14] was 64% and the “reduction in neutrophils in BALF” value [2, 14] was “only = 53%,”. The “reduction in IL2 production versus vehicle-treated con A-induced rats” value [5] was “only = 42%”, the “reduction in IL2 production versus vehicle-treated con A-induced rats” value ([5]; listed as dexamethasone) was 42% and the “plasma levels alone versus in combination” value [5] was “same levels”. For the same compound, the “reduction in neutrophils in BALF” value (neutrophils in BALF) was “only = 11%”.
